Experimental data published in patent US10959432B2, “Microbiocidal oxadiazole derivatives” (Syngenta Participations AG, priority 2016, dated 2021).

How the values were obtained:
[1] = test system: Glomerella laqenarium (Colletotrichum lagenarium); assay: Fungicidal activity against Glomerella lagenarium (Colletotrichum lagenarium) liquid culture / cucumber / preventative (anthracnose); type: cell-based; conditions: Colletotrichum orbiculare; 20 ppm in the applied formulation; liquid culture in PDB, 24° C., 3 to 4 days after application; read-out: disease control compared to untreated control (inhibition of growth measured photometrically)
Method: Mycelia fragments or conidia suspensions of a fungus prepared either freshly from liquid cultures of the fungus or from cryogenic storage, are directly mixed into nutrient broth. DMSO solutions of the test compound (max. 10 mg/ml) are diluted with 0.025% Tween20 by a factor of 50 and 10 μl of this solution is pipetted into a microtiter plate (96-well format). The nutrient broth containing the fungal spores/mycelia fragments is then added to give an end concentration of the tested compound. The test plates are incubated in the dark at 24° C. and 96% relative humidity. The inhibition of fungal growth is determined photometrically after 2 to 7 days, depending on the pathosystem, and percent antifungal activity relative to the untreated check is calculated.
Example 4: Fungicidal Activity Against Glomerella laqenarium (Colletotrichum lagenarium) Liquid Culture/Cucumber/Preventative (Anthracnose)
Conidia of the fungus from cryogenic storage are directly mixed into nutrient broth (PDB—potato dextrose broth). After placing a (DMSO) solution of test compound into a microtiter plate (96-well format), the nutrient broth containing the fungal spores is added. The test plates are incubated at 24° C. and the inhibition of growth is measured photometrically 3 to 4 days after application.
The following compounds at 20 ppm in the applied formulation give at least 80% disease control in this test when compared to untreated control under the same conditions, which show extensive disease development.

[2] = test system: Phakopsora pachyrhizi; assay: Fungicidal activity against Phakopsora pachyrhizi / soybean / leaf disc preventative (Asian soybean rust); type: in vivo; conditions: foliar, 200 ppm in the applied formulation, soybean leaf disks, preventative (inoculated one day after application), assessed 12 to 14 days after application, read-out: disease control compared to untreated control leaf disks
Method: (§1) Leaf disks or leaf segments of various plant species are cut from plants grown in a greenhouse. The cut leaf disks or segments are placed in multiwell plates (24-well format) onto water agar. The leaf disks are sprayed with a test solution before (preventative) or after (curative) inoculation. Compounds to be tested are prepared as DMSO solutions (max. 10 mg/ml) which are diluted to the appropriate concentration with 0.025% Tween20 just before spraying. The inoculated leaf disks or segments are incubated under defined conditions (temperature, relative humidity, light, etc.) according to the respective test system. A single evaluation of disease level is carried out 3 to 14 days after inoculation, depending on the pathosystem. Percent disease control relative to the untreated check leaf disks or segments is then calculated. General Examples of Liquid Culture Tests in Well Plates:
Example 3: Fungicidal Activity Against Phakopsora pachyrhizi/Soybean/Leaf Disc Preventative (Asian Soybean Rust)
Soybean leaf disks are placed on water agar in multiwell plates (24-well format) and sprayed with the formulated test compound diluted in water. One day after application leaf discs are inoculated by spraying a spore suspension on the lower leaf surface. After an incubation period in a climate cabinet of 24-36 hours in darkness at 20° C. and 75% rh leaf disc are kept at 20° C. with 12 h light/day and 75% rh. The activity of a compound is assessed as percent disease control compared to untreated when an appropriate level of disease damage appears in untreated check leaf disks (12 to 14 days after application).
(§2) The following compounds at 200 ppm in the applied formulation give at least 80% disease control in this test when compared to untreated control leaf disks under the same conditions, which show extensive disease development.

[3] = test system: Puccinia recondita f. sp. tritici; assay: Fungicidal activity against Puccinia recondita f. sp. tritici / wheat / leaf disc preventative (brown rust); type: in vivo; conditions: foliar, 200 ppm in the applied formulation, wheat leaf segments cv. Kanzler, preventative (inoculated 1 day after application), assessed 7 to 9 days after application, read-out: disease control compared to untreated control leaf disks
Method: as §1
Example 1: Fungicidal Activity Against Puccinia recondita f. sp. tritici/Wheat/Leaf Disc Preventative (Brown Rust)
Wheat leaf segments cv. Kanzler were placed on agar in multiwell plates (24-well format) and sprayed with the formulated test compound diluted in water. The leaf disks were inoculated with a spore suspension of the fungus 1 day after application. The inoculated leaf segments were incubated at 19C and 75% relative humidity (rh) under a light regime of 12 hours light/12 hours darkness in a climate cabinet and the activity of a compound was assessed as percent disease control compared to untreated when an appropriate level of disease damage appears in untreated check leaf segments (7 to 9 days after application).
as §2

[4] = test system: Puccinia recondita f. sp. tritici; assay: Fungicidal activity against Puccinia recondita f. sp. tritici / wheat / leaf disc curative (brown rust); type: in vivo; conditions: foliar, 200 ppm in the applied formulation, wheat leaf segments cv. Kanzler, curative (applied 1 day after inoculation), assessed 6 to 8 days after application, read-out: disease control compared to untreated control leaf disks
Method: as §1
Example 2: Fungicidal Activity Against Puccinia recondita f. sp. Tritici/Wheat/Leaf Disc Curative (Brown Rust)
Wheat leaf segments cv. Kanzler are placed on agar in multiwell plates (24-well format). The leaf segments are then inoculated with a spore suspension of the fungus. Plates were stored in darkness at 19° C. and 75% relative humidity. The formulated test compound diluted in water was applied 1 day after inoculation. The leaf segments were incubated at 19° C. and 75% relative humidity under a light regime of 12 hours light/12 hours darkness in a climate cabinet and the activity of a compound was assessed as percent disease control compared to untreated when an appropriate level of disease damage appears in untreated check leaf segments (6 to 8 days after application).
as §2

CC(C)NC(=O)c1ccc(-c2noc(C(F)(F)F)n2)cc1F [Compound 3b.27, 2-fluoro-N-isopropyl-4-[5-(trifluoromethyl)-1,2,4-oxadiazol-3-yl]benzamide]
≥ 80%: inhibition at 20 ppm [1] | pest or weed control at 200 ppm [2] | pest or weed control at 200 ppm [3] | pest or weed control at 200 ppm [4]

CCOCCCNC(=O)c1ccc(-c2noc(C(F)(F)F)n2)cc1 [Compound 3a.22, N-(3-ethoxypropyl)-4-[5-(trifluoromethyl)-1,2,4-oxadiazol-3-yl]benzamide]
≥ 80%: inhibition at 20 ppm [1] | pest or weed control at 200 ppm [2] | pest or weed control at 200 ppm [3] | pest or weed control at 200 ppm [4]

COCCN(C(=O)c1ccc(-c2noc(C(F)(F)F)n2)cc1)C(C)C [Compound 3a.12, N-isopropyl-N-(2-methoxyethyl)-4-[5-(trifluoromethyl)-1,2,4-oxadiazol-3-yl]benzamide]
≥ 80%: inhibition at 20 ppm [1] | pest or weed control at 200 ppm [2] | pest or weed control at 200 ppm [3] | pest or weed control at 200 ppm [4]

CC(C)CCNC(=O)c1ccc(-c2noc(C(F)(F)F)n2)cc1F [Compound 3b.41, 2-fluoro-N-isopentyl-4-[5-(trifluoromethyl)-1,2,4-oxadiazol-3-yl]benzamide]
≥ 80%: inhibition at 20 ppm [1] | pest or weed control at 200 ppm [2] | pest or weed control at 200 ppm [3] | pest or weed control at 200 ppm [4]

COCC(C)NC(=O)c1ccc(-c2noc(C(F)(F)F)n2)cc1 (stereo not shown) [Compound 3a.37, N-(2-methoxy-1-methyl-ethyl)-4-[5-(trifluoromethyl)-1,2,4-oxadiazol-3-yl]benzamide]
≥ 80%: inhibition at 20 ppm [1] | pest or weed control at 200 ppm [2] | pest or weed control at 200 ppm [3] | pest or weed control at 200 ppm [4]

O=C(NCC1CC1)c1ccc(-c2noc(C(F)(F)F)n2)cc1Cl [Compound 2b.13, 2-chloro-N-(cyclopropyl-methyl)-4-[5-(trifluoromethyl)-1,2,4-oxadiazol-3-yl]benzamide]
≥ 80%: inhibition at 20 ppm [1] | pest or weed control at 200 ppm [2] | pest or weed control at 200 ppm [3] | pest or weed control at 200 ppm [4]

CCN(CC)C(=O)c1ccc(-c2noc(C(F)(F)F)n2)cc1F [Compound 3b.32, N,N-diethyl-2-fluoro-4-[5-(trifluoromethyl)-1,2,4-oxadiazol-3-yl]benzamide]
≥ 80%: inhibition at 20 ppm [1] | pest or weed control at 200 ppm [2] | pest or weed control at 200 ppm [3] | pest or weed control at 200 ppm [4]

CCC(C)NC(=O)c1ccc(-c2noc(C(F)(F)F)n2)cc1F (stereo not shown) [Compound 3b.10, 2-fluoro-N-sec-butyl-4-[5-(trifluoromethyl)-1,2,4-oxadiazol-3-yl]benzamide]
≥ 80%: inhibition at 20 ppm [1] | pest or weed control at 200 ppm [2] | pest or weed control at 200 ppm [3] | pest or weed control at 200 ppm [4]

CCCN(C)C(=O)c1ccc(-c2noc(C(F)(F)F)n2)cc1F [Compound 3b.34, 2-fluoro-N-methyl-N-propyl-4-[5-(trifluoromethyl)-1,2,4-oxadiazol-3-yl]benzamide]
≥ 80%: inhibition at 20 ppm [1] | pest or weed control at 200 ppm [2] | pest or weed control at 200 ppm [3] | pest or weed control at 200 ppm [4]

CN(C(=O)c1ccc(-c2noc(C(F)(F)F)n2)cc1F)C(C)(C)C [Compound 3b.37, N-tert-butyl-2-fluoro-N-methyl-4-[5-(trifluoromethyl)-1,2,4-oxadiazol-3-yl]benzamide]
≥ 80%: inhibition at 20 ppm [1] | pest or weed control at 200 ppm [2] | pest or weed control at 200 ppm [3] | pest or weed control at 200 ppm [4]

CCOC(=O)CC(C)NC(=O)c1ccc(-c2noc(C(F)(F)F)n2)cc1F (stereo not shown) [Compound 3b.28, ethyl 3-[[2-fluoro-4-[5-(trifluoromethyl)-1,2,4-oxadiazol-3-yl]benzoyl]amino]butanoate]
≥ 80%: inhibition at 20 ppm [1] | pest or weed control at 200 ppm [3] | pest or weed control at 200 ppm [4]

C=C(C)CN(CC)C(=O)c1ccc(-c2noc(C(F)(F)F)n2)cc1F [Compound 3b.33, N-ethyl-2-fluoro-N-(2-methylallyl)-4-[5-(trifluoromethyl)-1,2,4-oxadiazol-3-yl]benzamide]
≥ 80%: inhibition at 20 ppm [1] | pest or weed control at 200 ppm [2] | pest or weed control at 200 ppm [3] | pest or weed control at 200 ppm [4]

COCCN(C)C(=O)c1ccc(-c2noc(C(F)(F)F)n2)cc1F [Compound 3b.19, 2-fluoro-N-(2-methoxyethyl)-N-methyl-4-[5-(trifluoromethyl)-1,2,4-oxadiazol-3-yl]benzamide]
≥ 80%: inhibition at 20 ppm [1] | pest or weed control at 200 ppm [2] | pest or weed control at 200 ppm [3] | pest or weed control at 200 ppm [4]

CCC(C)NC(=O)c1ccc(-c2noc(C(F)(F)F)n2)cc1 (stereo not shown) [Compound 3a.7, N-sec-butyl-4-[5-(trifluoromethyl)-1,2,4-oxadiazol-3-yl]benzamide]
≥ 80%: inhibition at 20 ppm [1] | pest or weed control at 200 ppm [2] | pest or weed control at 200 ppm [3] | pest or weed control at 200 ppm [4]

C#CCN(C)C(=O)c1ccc(-c2noc(C(F)(F)F)n2)cc1F [Compound 3b.44, 2-fluoro-N-methyl-N-prop-2-ynyl-4-[5-(trifluoromethyl)-1,2,4-oxadiazol-3-yl]benzamide]
≥ 80%: inhibition at 20 ppm [1] | pest or weed control at 200 ppm [2] | pest or weed control at 200 ppm [3] | pest or weed control at 200 ppm [4]

CCCCCCNC(=O)c1ccc(-c2noc(C(F)(F)F)n2)cc1F [Compound 3b.31, 2-fluoro-N-hexyl-4-[5-(trifluoromethyl)-1,2,4-oxadiazol-3-yl]benzamide]
≥ 80%: inhibition at 20 ppm [1] | pest or weed control at 200 ppm [2] | pest or weed control at 200 ppm [4]

O=C(NCCCO)c1ccc(-c2noc(C(F)(F)F)n2)cc1F [Compound 3b.23, 2-fluoro-N-(3-hydroxypropyl)-4-[5-(trifluoromethyl)-1,2,4-oxadiazol-3-yl]benzamide]
≥ 80%: inhibition at 20 ppm [1] | pest or weed control at 200 ppm [2] | pest or weed control at 200 ppm [4]

CN(C(=O)c1ccc(-c2noc(C(F)(F)F)n2)cc1)c1ccccn1 [Compound 5a.4, N-methyl-N-(2-pyridyl)-4-[5-(trifluoromethyl)-1,2,4-oxadiazol-3-yl]benzamide]
≥ 80%: inhibition at 20 ppm [1] | pest or weed control at 200 ppm [2] | pest or weed control at 200 ppm [4]

CC(C)C(CO)NC(=O)c1ccc(-c2noc(C(F)(F)F)n2)cc1F (stereo not shown) [Compound 3b.18, 2-fluoro-N-[1-(hydroxymethyl)-2-methyl-propyl]-4-[5-(trifluoromethyl)-1,2,4-oxadiazol-3-yl]benzamide]
≥ 80%: inhibition at 20 ppm [1] | pest or weed control at 200 ppm [4]

CC(C)C(CO)NC(=O)c1ccc(-c2noc(C(F)(F)F)n2)cc1 (stereo not shown) [Compound 3a.18, N-[1-(hydroxymethyl)-2-methyl-propyl]-4-[5-(trifluoromethyl)-1,2,4-oxadiazol-3-yl]benzamide]
≥ 80%: inhibition at 20 ppm [1] | pest or weed control at 200 ppm [2] | pest or weed control at 200 ppm [4]
